Reference: patent publication US9617310B2 (priority 2013, dated 2017)

Columns and labels:
Assay type in all cases: cell-based
[1] = test system: genotype 1b wild-type transient HCV replicon in Huh-7-derived cells; test: Transient-transfected HCV replicon, genotype 1b wild type; conditions: Hepatitis C virus; transient-transfected replicon genotype 1b wild type, 72 h; read-out: EC50 1B WT
[2] = test system: genotype 1a (H77) wild-type transient HCV replicon in Huh-7-derived cells; test: Transient-transfected HCV replicon, genotype 1a wild type; conditions: Hepatitis C virus; transient-transfected replicon genotype 1a wild type, 72 h; read-out: EC50 1A WT
[3] = test system: genotype 2a stable HCV replicon (JFH-1) in Huh-7-derived cells; test: Stable subgenomic HCV replicon, genotype 2a, Renilla luciferase; conditions: Hepatitis C virus, stable replicon genotype 2a, 72 h, read-out: EC50 2A RLUC
Procedure: (§1) Antiviral potency (EC50) was determined in both stable subgenomic HCV replicon cell lines and transient-transfected HCV replicon cells. The term half maximal effective concentration (EC50) refers to the concentration of a drug which induces a response halfway between the baseline and maximum after the exposure time specified below.
(§2) Stable subgenomic HCV replicons for genotype 1a, 1b, 2a, 3a, and 4a were established in Huh-7-derived cells as described by Lohmann et al (Lohmann V, Korner F, Koch J, et al Replication of subgenomic hepatitis C virus RNAs in a hepatoma cell line. Science 1999; 285:119-3). Each stable cell line contains a bicistronic HCV replicon that encodes a humanized Renilla luciferase (hRLuc) reporter gene fused to a selectable neomycin-resistance gene, followed by an EMCV IRES and the NS3-NS5B coding region of HCV. […] Luciferase activity was measured as a marker for intracellular HCV replication levels.
(§3) The genotype 1a stable replicon was derived from the H77 HCV strain and contained adaptive mutations P1496L and S2204I. The genotype 1b stable replicon was derived from the Con1 HCV strain and contained adaptive mutations E1202G, T1280I, and K1846T. […] The genotype 3a stable replicon was derived from the S52 HCV strain and contained adaptive mutations P1121 L, A1198T and S2210I (equivalent to S2204I in genotype 1). The genotype 4a stable replicon was derived from the ED43 HCV strain and contained adaptive mutations Q1691R and S2204I. All replicon cell lines were propagated in Huh-7-derived cells and maintained in Dulbecco's modified Eagle's Medium (DMEM) supplemented with 10% fetal bovine serum (FBS) and 0.5 mg/ml G418.
(§4) To perform EC50 assays, cells from each HCV replicon were dispensed into 384-well plates. Compounds were dissolved in DMSO at a concentration of 10 mM and diluted in DMSO using an automated pipetting instrument. Three-fold serially diluted compounds were directly added to the cells using an automated instrument. DMSO was used as a negative (solvent; no inhibition) control, and a combination of three HCV inhibitors including a protease inhibitor; an NS5A inhibitor and a nucleoside inhibitor was used at concentrations >100×EC50 as a positive control (100% inhibition). Seventy-two hours later, cells were lysed and Renilla luciferase activity were quantified as recommended by the manufacturer (Promega-Madison, Wis.). Non-linear regression was performed to calculate […], values.

[4] = test system: genotype 4a stable HCV replicon (ED43) in Huh-7-derived cells; test: Stable subgenomic HCV replicon, genotype 4a, Renilla luciferase; conditions: Hepatitis C virus, 72 h, read-out: EC50 4A RLUC
Procedure: as §1, §2, §3, §4

[5] = test system: NS3/4a protease inhibitor resistant variant R155K in genotype 1a transient HCV replicon; test: Transient-transfected HCV replicon, genotype 1a R155K; conditions: Hepatitis C virus, 72 h, read-out: EC50 1A R155K
[6] = test system: NS3/4a protease inhibitor resistant variant D168A in genotype 1b transient HCV replicon; test: Transient-transfected HCV replicon, genotype 1b D168A; conditions: Hepatitis C virus, 72 h, read-out: EC50 1B D168A
[7] = test system: genotype 1a stable HCV replicon (H77) in Huh-7-derived cells; test: Stable subgenomic HCV replicon, genotype 1a, Renilla luciferase; conditions: Hepatitis C virus, stable replicon genotype 1a, 72 h, read-out: EC50 1A RLUC
Procedure: as §1, §2, §3, §4

| SMILES | EC50 [1] | EC50 [2] | EC50 [3] | EC50 [4] | EC50 [5] | EC50 [6] | EC50 [7] |
| --- | --- | --- | --- | --- | --- | --- | --- |
| COc1ccc2nc3c(nc2c1)O[C@@H]1C[C@@H](C(=O)N[C@]2(C(=O)NS(=O)(=O)C4(C)CC4)C[C@H]2C(F)F)N(C1)C(=O)[C@H](C(C)(C)C)NC(=O)O[C@H]1[C@H](CCCCC3)C[C@H]2C[C@H]21 [Example 8, (1aR,1bS,5S,8S,10R,22aR,23aR)-5-tert-butyl-N-[(1R,2R)-2-(difluoromethyl)-1-{[(1-methylcyclopropyl)sulfonyl]carbamoyl}cyclopropyl]-14-methoxy-3,6-dioxo-1a,1b,3,4,5,6,9,10,18,19,20,21,22,22a, 23,23a-hexadecahydro-1H,8H-7,10-methanocyclopropa[3′,4′]cyclopenta [1′,2′:18,19][1,10,3,6]dioxadiazacyclononadecino[11,12-b]quinoxaline-8-carboxamide] | 33 nM | 72 nM | 110 nM | 33 nM | 148 nM | 712 nM | 76 nM |
| COc1ccc2nc3c(nc2c1)O[C@@H]1C[C@@H](C(=O)N[C@]2(C(=O)NS(=O)(=O)C4(C)CC4)C[C@H]2C(F)F)N(C1)C(=O)[C@H](C(C)(C)C)NC(=O)O[C@@H]1C[C@@H]2C[C@@H]2[C@H]1CCCCC3(F)F [Example 10, (1aS,2aR,6S,9S,11R,23aR,23bS)-6-tert-butyl-N-[(1R,2R)-2-(difluoromethyl)-1-{[(1-methylcyclopropyl)sulfonyl]carbamoyl}cyclopropyl]-19,19-difluoro-15-methoxy-4,7-dioxo-1a,2,2a,4,5,6,7,10,11,19,20,21,22,23,23a,23b-hexadecahydro-1H,9H-8,11-methanocyclopropa [4′,5′]cyclopenta[1′,2′:18,19][1,10,3,6]dioxadiazacyclononadecino[11,12-b]quinoxaline-9-carboxamide] | 0.75 nM | 1.4 nM | 1.6 nM | 1.3 nM | 1.3 nM | 1 nM | 1.6 nM |
| CC(C)(C)[C@@H]1NC(=O)O[C@@H]2C[C@@H]3C[C@@H]3[C@H]2CCCCCc2nc3ccc(F)cc3nc2O[C@@H]2C[C@@H](C(=O)N[C@]3(C(=O)NS(=O)(=O)C4(C)CC4)C[C@H]3C(F)F)N(C2)C1=O [Example 11, (1aS,2aR,6S,9S,11R,23aR,23bS)-6-tert-butyl-N-[(1R,2R)-2-(difluoromethyl)-1-{[(1-methylcyclopropyl)sulfonyl]carbamoyl}cyclopropyl]-15-fluoro-4,7-dioxo-1a,2,2a,4,5,6,7,10,11,19,20,21,22,23,23a,23b-hexadecahydro-1H,9H-8,11-methanocyclopropa[4′,5′]cyclopenta[1′,2′:18,19][1,10,3,6]dioxadiazacyclononadecino[11,12-b]quinoxaline-9-carboxamide] | 0.78 nM | 1.4 nM | 2 nM | 1.2 nM | 1.9 nM | 8.6 nM | 1.4 nM |
| CC(C)(C)[C@@H]1NC(=O)O[C@@H]2C[C@@H]3C[C@@H]3[C@H]2CCCCCc2nc3ccc(F)cc3nc2O[C@@H]2C[C@@H](C(=O)N[C@]3(C(=O)NS(=O)(=O)C4CC4)C[C@H]3C(F)F)N(C2)C1=O [Example 12, (1aS,2aR,6S,9S,11R,23aR,23bS)-6-tert-butyl-N-[(1R,2R)-1-[(cyclopropylsulfonyl)carbamoyl]-2-(difluoromethyl)cyclopropyl]-15-fluoro-4,7-dioxo-1a,2,2a,4,5,6,7,10,11,19,20,21,22,23,23a,23b-hexadecahydro-1H,9H-8,11-methanocyclopropa[4′,5′]cyclopenta[1′,2′:18,19][1,10,3,6]dioxadiazacyclononadecino[11,12-b]quinoxaline-9-carboxamide] | 0.64 nM | 0.8 nM | 2.6 nM | 1.4 nM | 1.9 nM | 15.6 nM | 1.7 nM |
| CC(C)(C)[C@@H]1NC(=O)O[C@@H]2C[C@@H]3C[C@@H]3[C@H]2CC/C=C/C(F)(F)c2nc3ccc(C#N)cc3nc2O[C@@H]2C[C@@H](C(=O)N[C@]3(C(=O)NS(=O)(=O)C4(C)CC4)C[C@H]3C(F)F)N(C2)C1=O [Example 13, (1aS,2aR,6S,9S,11R,20E,23aR,23bS)-6-tert-butyl-15-cyano-N-[(1R,2R)-2-(difluoromethyl)-1-{[(1-methylcyclopropyl)sulfonyl]carbamoyl}cyclopropyl]-19,19-difluoro-4,7-dioxo-1a,2,2a,4,5,6,7,10,11,19,22,23,23a,23b-tetradecahydro-1H,9H-8,11-methanocyclopropa[4′,5′]cyclopenta[1′,2′18,19][1,10,3,6]dioxadiazacyclononadecino[11,12-b]quinoxaline-9-carboxamide] | 0.99 nM | 2.8 nM | 1.4 nM | 3.6 nM | 2 nM | 1.1 nM | 3.4 nM |
| CC(C)(C)[C@@H]1NC(=O)O[C@@H]2C[C@@H]3C[C@@H]3[C@H]2CCCCC(F)(F)c2nc3ccc(C#N)cc3nc2O[C@@H]2C[C@@H](C(=O)N[C@]3(C(=O)NS(=O)(=O)C4(C)CC4)C[C@H]3C(F)F)N(C2)C1=O [Example 14, (1aS,2aR,6S,9S,11R,23aR,23bS)-6-tert-butyl-15-cyano-N-[(1R,2R)-2-(difluoromethyl)-1-{[(1-methylcyclopropyl)sulfonyl]carbamoyl}cyclopropyl]-19,19-difluoro-4,7-dioxo-1a,2,2a,4,5,6,7,10,11,19,20,21,22,23,23a,23b-hexadecahydro-1H,9H-8,11-methanocyclopropa[4′,5′]cyclopenta [1′,2′:18,19][1,10,3,6]dioxadiazacyclononadecino[11,12-b]quinoxaline-9-carboxamide] | 0.55 nM | 0.9 nM | 1.4 nM | 1.4 nM | 0.69 nM | 0.65 nM | 1.4 nM |
| CC(C)(C)[C@@H]1NC(=O)O[C@@H]2C[C@@H]3C[C@@H]3[C@H]2CCCCC(F)(F)c2nc3ccc(OC(F)F)cc3nc2O[C@@H]2C[C@@H](C(=O)N[C@]3(C(=O)NS(=O)(=O)C4CC4)C[C@H]3C(F)F)N(C2)C1=O [Example 16, (1aS,2aR,6S,9S,11R,23aR,23bS)-6-tert-butyl-N-[(1R,2R)-1-[(cyclopropylsulfonyl)carbamoyl]-2-(difluoromethyl)cyclopropyl]-15-(difluoromethoxy)-19,19-difluoro-4,7-dioxo-1a,2,2a,4,5,6,7,10,11,19,20,21,22,23,23a,23b-hexadecahydro-1H,9H-8,11-methanocyclopropa[4′,5′]cyclopenta [1′,2′:18,19][1,10,3,6]dioxadiazacyclononadecino[11,12-b]quinoxaline-9-carboxamide] | 1.6 nM | 1.8 nM | 2.3 nM | 2.3 nM | 2 nM | 7.9 nM | 3.8 nM |
| CC(C)(C)[C@@H]1NC(=O)O[C@@H]2C[C@@H]3C[C@@H]3[C@H]2CCCCC(F)(F)c2nc3ccccc3nc2O[C@@H]2C[C@@H](C(=O)N[C@]3(C(=O)NS(=O)(=O)C4(C)CC4)C[C@H]3C(F)F)N(C2)C1=O [Example 17] | 1.3 nM | 3.3 nM | 2.7 nM | 4.8 nM | 2.9 nM | 2.7 nM | 5.8 nM |
| CC(C)(C)[C@@H]1NC(=O)O[C@@H]2C[C@@H]3C[C@@H]3[C@H]2CCCCC(F)(F)c2nc3ccccc3nc2O[C@@H]2C[C@@H](C(=O)N[C@]3(C(=O)NS(=O)(=O)C4CC4)C[C@H]3C(F)F)N(C2)C1=O [Example 18] | 1.6 nM | 3.6 nM | 2.6 nM | 4.2 nM | 2.6 nM | 2.6 nM | 4.8 nM |
